Biological target: murine double minute 2 (MDM2) (Homo sapiens, UniProt Q00987)
Experiment: biochemical
Type: binding

murine double minute 2 (MDM2), sequence (Q00987 3-155): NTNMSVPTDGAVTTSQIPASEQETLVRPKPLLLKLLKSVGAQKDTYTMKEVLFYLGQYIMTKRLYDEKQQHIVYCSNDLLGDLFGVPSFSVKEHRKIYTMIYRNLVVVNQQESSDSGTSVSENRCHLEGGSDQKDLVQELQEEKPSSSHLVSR

Compound | IC50 [nM]
CC(C)COCC(CN(Cc1ccccc1)c1ccccc1)N1CCCC1 (centres unmarked) [bepridil] | 206
CN1CCCC(n2nc(Cc3ccc(Cl)cc3)c3ccccc3c2=O)CC1 (centres unmarked) [azelastine] | 367
